In PubChem BioAssay AID652227 (The Scripps Research Institute Molecular Screening Center, 2013) one finds IC50 data, which are given here for five molecules.

For the experiment, the target named is Serine/threonine-protein phosphatase PP1-alpha catalytic subunit (Homo sapiens) (UniProt P62136). As to the kind of experiment: PP1 inhibition of glycogen phosphorylase dephosphorylation, late-stage follow-up, orthogonal assay for PP1 inhibitor probe project, biochemical, radiolabel, dose response, powder samples, set 2 (AID 652227). Conditions: purified PP1alpha, 32P/33P-phosphorylase dephosphorylation, scintillation.
Chain of Serine/threonine-protein phosphatase PP1-alpha catalytic subunit (Homo sapiens) (P62136 whole entry, looked up): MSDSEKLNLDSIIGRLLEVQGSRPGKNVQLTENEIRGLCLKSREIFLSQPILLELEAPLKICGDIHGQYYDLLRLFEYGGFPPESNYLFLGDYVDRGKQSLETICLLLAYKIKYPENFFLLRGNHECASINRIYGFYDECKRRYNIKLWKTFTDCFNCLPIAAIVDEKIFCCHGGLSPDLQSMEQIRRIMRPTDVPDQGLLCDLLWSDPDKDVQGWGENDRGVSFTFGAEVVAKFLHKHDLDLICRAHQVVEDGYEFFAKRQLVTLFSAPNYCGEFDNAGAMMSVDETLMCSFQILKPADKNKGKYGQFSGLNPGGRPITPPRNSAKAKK
As for `CCn1c2ccccc2c2cc(NC(=O)COC(=O)c3ccc(NC(=O)CC#N)cc3)ccc21`, the IC50 (as a rule, the concentration needed to halve the response being measured) is 38 µM.
Molecule `N#Cc1c(-c2ccc(Cl)cc2)cc(-c2cccs2)nc1SCC(=O)O` showed an IC50 of 21.9 µM.
With `CCOC(=O)c1sc2nc3c(SCC(=O)O)cc(C(=O)c4cc(F)ccc4O)cn3c(=O)c2c1C`, the IC50 is 8.54 µM.
With `COc1ccc(NC(=O)C2C3CCC(O3)C2C(=O)O)c(OC)c1` (stereo not given), the IC50 is 18.9 µM.
The same measure for `CN1CCN(C(c2ccccn2)c2cc(Cl)c3cccnc3c2O)CC1` (stereo not given): 4.89 µM.
